Bounds are passed on as bounds.

The first experiment addresses T1, E-selectin (Homo sapiens, UniProt P16581).
T1 sequence (P16581 whole entry): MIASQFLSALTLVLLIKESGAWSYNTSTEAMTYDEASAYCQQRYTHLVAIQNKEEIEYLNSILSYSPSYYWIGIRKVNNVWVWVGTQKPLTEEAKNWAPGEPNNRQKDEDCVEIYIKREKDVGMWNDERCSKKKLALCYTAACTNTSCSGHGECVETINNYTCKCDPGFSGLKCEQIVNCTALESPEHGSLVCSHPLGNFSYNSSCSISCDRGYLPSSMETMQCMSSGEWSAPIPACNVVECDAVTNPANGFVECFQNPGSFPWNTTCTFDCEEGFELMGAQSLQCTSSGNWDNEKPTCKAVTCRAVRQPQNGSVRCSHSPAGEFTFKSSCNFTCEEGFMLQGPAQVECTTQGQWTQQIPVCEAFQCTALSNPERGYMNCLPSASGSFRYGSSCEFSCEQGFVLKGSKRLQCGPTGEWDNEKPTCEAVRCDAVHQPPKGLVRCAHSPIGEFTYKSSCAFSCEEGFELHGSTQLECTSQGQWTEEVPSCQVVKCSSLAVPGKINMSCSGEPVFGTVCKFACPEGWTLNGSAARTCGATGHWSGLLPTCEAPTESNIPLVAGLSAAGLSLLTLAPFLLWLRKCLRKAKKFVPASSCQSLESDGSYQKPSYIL
Briefly: In vitro inhibitory activity against binding of Selectin E to human recombinant AGP (alpha-1 acid glycoprotein) at a concentration of 10 mM; NA- Not active.
`NC(=O)[C@H]1CCCN1CC1OC(CC(=O)N[C@@H](CCC(=O)O)C(=O)O)C(O)C(O)C1O` (some centres not stated): the IC50 result is given as “Not Active”.

For the molecule `O=C(O)C(NCCC1OC(CO)C(O)C(O)C1O)c1cc2ccccc2[nH]1` (configuration not stated), the IC50 entry is “Not Active”.

On to `C[C@@H](Cc1ccccc1)N(C)CC1OC(CC(=O)N[C@@H](CCC(=O)O)C(=O)O)C(O)C(O)C1O` (some centres not stated), for which the half-inhibitory concentration (IC50) entry was “Not Active”.

As for `NC(=O)CC1OC(CO)C(O)C(O)C1O` (configuration not stated), the half-inhibitory concentration (IC50) result is “Not Active”.

As to `O=C(O)c1cc(NCCC2OC(CO)C(O)C(O)C2O)cc(C(=O)O)c1` (configuration not stated), the IC50 entry is given as “Not Active”.

Consider `Cc1cccc(N2CCN(CC3OC(CC(=O)N[C@@H](CCC(=O)O)C(=O)O)C(O)C(O)C3O)CC2)c1C` (some centres not stated), for which the half-inhibitory concentration (IC50) entry was “Not Active”.

In the next experiment the target is T1, E-selectin. Briefly: In vitro inhibitory activity against Selectin E binding to human recombinant AGP (alpha-1 acid glycoprotein).
Regarding `NCCCC[C@@H](NC(=O)CC1OC(CO)C(O)C(O)C1O)C(=O)O` (some centres not stated), the IC50 was 7 mM.

Regarding `O=C(O)CC[C@@H](NC(=O)CC1OC(CO)C(O)C(O)C1O)C(=O)O` (some centres not stated), the concentration for half-maximal inhibition (IC50) stood at 7 mM.

As to `NC(=O)CC[C@@H](NC(=O)CC1OC(CO)C(O)C(O)C1O)C(=O)O` (some centres not stated), the IC50 was over 10 mM.

`CC1CCCC(N(C)CC2OC(CC(=O)N[C@@H](CCC(=O)O)C(=O)O)C(O)C(O)C2O)C1` (some centres not stated): the IC50 was 8 mM.

On to `O=C(O)CC[C@H](NC(=O)CC1OC(CNc2cc(C(=O)O)cc(C(=O)O)c2)C(O)C(O)C1O)C(=O)O` (some centres not stated), for which the IC50 stood at 6 mM.

As for `O=C(O)CCCc1ccc(NC(=O)CC2OC(CO)C(O)C(O)C2O)cc1` (configuration not stated), the IC50 was over 10 mM.

`O=C(O)CC[C@H](NC(=O)CC1OC(CO)C(O)C(O)C1O)C(=O)O` (some centres not stated): the IC50 came to 3 mM.

Turning to `O=C(O)CCc1ccc(NC(=O)CC2OC(CO)C(O)C(O)C2O)cc1` (configuration not stated), the IC50 turned out to be 10 mM.

With `O=C(O)CC[C@H](NC(=O)CC1OC(CN2CCC(O)(Cc3ccccc3)CC2)C(O)C(O)C1O)C(=O)O` (some centres not stated), the concentration for half-maximal inhibition (IC50) worked out at 1.6 mM.

As for `O=C(O)C[C@@H](NC(=O)CC1OC(CO)C(O)C(O)C1O)C(=O)O` (some centres not stated), the half-maximal inhibitory concentration (IC50) stood at 6 mM.

For the molecule `NC(=O)[C@H](Cc1ccccc1)NCC1OC(CC(=O)N[C@@H](CCC(=O)O)C(=O)O)C(O)C(O)C1O` (some centres not stated), the IC50 was found to be 6.7 mM.

Values taken from ChEMBL document CHEMBL1133994, “Design and synthesis of sialyl Lewis x mimics as E-selectin inhibitors” (Bioorg Med Chem Lett, 2001).
